What was measured:
[1] = Dissociation constant, pKa of the compound; format: physicochemical
[2] = tested on: Nucleic Acid; test: Ratio of drug level in brain to plasma in Sprague-Dawley rat at 10 mg/kg, po measured at 6 hrs; format: ADME, organism-based; design: dose 10 mg/kg, route oral
[3] = Drug uptake in Sprague-Dawley rat brain at 10 mg/kg, po measured at 6 hrs by LC-MS/MS analysis; format: ADME, organism-based; design: dose 10 mg/kg, route oral; conditions: read-out: Drug uptake
[4] = Plasma concentration in Sprague-Dawley rat at 10 mg/kg, po measured at 6 hrs by LC-MS/MS analysis; format: ADME, organism-based; design: dose 10 mg/kg, route oral

Row | SMILES | pKa [1] | BPR [2] | concentration at 6 h [3] | concentration at 6 h [4]
1 | COc1cccc(-c2cccc([C@@]3(c4ccncc4)N=C(N)N4CC(F)(F)CN=C43)c2)c1F | 5.3 | – | – | –
2 | NC1=N[C@@]2(c3cc(NC(=O)c4cnc(CF)cn4)ccc3F)CO[C@H](C(F)(F)F)[C@H]2CS1 | – | 3.7 | 845 nM | 229 nM
3 | NC1=N[C@](c2ccc(OC(F)F)cc2)(c2cccc(OCCF)c2)C2=NCC(F)(F)CN12 | 6.5 | – | – | –
4 | NC1=N[C@@]2(c3cc(NC(=O)c4cnc(C(F)F)cn4)ccc3F)CO[C@H](CF)[C@H]2CS1 | – | 0.7 | 570 nM | 570 nM

Source: ChEMBL document CHEMBL3259716, “The evolution of amidine-based brain penetrant BACE1 inhibitors” (Bioorg Med Chem Lett, 2014)
